Data: ChEMBL document CHEMBL1122959, “3-Hydroxy-3-methylglutaryl-coenzyme A reductase inhibitors. 1. Structural modification of 5-substituted 3,5-dihydroxypentanoic acids and their lactone derivatives” (J Med Chem, 1985)
One block for each compound: values may come before it.

Tests used:
[1] = target: T1, 3-hydroxy-3-methylglutaryl-coenzyme A reductase (Rattus norvegicus, UniProt P51639); test: In vitro inhibitory activity against HMG CoA reductase
T1 sequence (P51639 whole entry): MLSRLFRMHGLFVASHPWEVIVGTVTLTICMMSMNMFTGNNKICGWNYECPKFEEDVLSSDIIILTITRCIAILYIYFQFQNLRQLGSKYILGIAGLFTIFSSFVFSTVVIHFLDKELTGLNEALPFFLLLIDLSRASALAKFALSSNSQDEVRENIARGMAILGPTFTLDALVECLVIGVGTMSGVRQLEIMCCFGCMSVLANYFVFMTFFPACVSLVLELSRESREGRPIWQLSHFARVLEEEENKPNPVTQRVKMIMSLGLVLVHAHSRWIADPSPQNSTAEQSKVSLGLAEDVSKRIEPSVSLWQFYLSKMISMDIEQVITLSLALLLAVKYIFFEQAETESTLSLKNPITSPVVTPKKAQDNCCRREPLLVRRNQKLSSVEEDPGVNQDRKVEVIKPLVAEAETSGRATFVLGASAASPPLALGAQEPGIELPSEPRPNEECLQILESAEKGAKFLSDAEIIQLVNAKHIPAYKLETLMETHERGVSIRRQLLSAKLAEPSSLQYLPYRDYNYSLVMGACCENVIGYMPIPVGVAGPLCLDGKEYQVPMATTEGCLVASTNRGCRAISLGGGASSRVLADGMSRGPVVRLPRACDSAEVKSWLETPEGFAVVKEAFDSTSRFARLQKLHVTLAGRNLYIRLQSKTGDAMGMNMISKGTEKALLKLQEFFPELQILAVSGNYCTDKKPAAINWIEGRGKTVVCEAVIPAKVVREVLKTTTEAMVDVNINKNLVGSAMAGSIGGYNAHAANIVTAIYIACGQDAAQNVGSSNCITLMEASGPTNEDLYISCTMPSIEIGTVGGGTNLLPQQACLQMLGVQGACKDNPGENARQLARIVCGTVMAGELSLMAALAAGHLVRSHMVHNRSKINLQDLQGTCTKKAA

[2] = target: T2, 3-hydroxy-3-methylglutaryl-coenzyme A reductase (Rattus norvegicus) (UniProt P51639); test: Relative potency against HMG CoA reductase
T2 sequence (whole entry): T1 sequence (P51639 whole entry)

[3] = target: T2, 3-hydroxy-3-methylglutaryl-coenzyme A reductase (Rattus norvegicus); test: Inhibitory activity against partially purified rat liver HMG CoA reductase at 0.1 ug/ml concentration
[4] = target: T2, 3-hydroxy-3-methylglutaryl-coenzyme A reductase (Rattus norvegicus); test: Inhibitory activity against partially purified rat liver HMG CoA reductase at 0.2 ug/ml concentration
[5] = target: T2, 3-hydroxy-3-methylglutaryl-coenzyme A reductase (Rattus norvegicus); test: Inhibitory activity against partially purified rat liver HMG CoA reductase at 0.4 ug/ml concentration
[6] = target: T2, 3-hydroxy-3-methylglutaryl-coenzyme A reductase (Rattus norvegicus); test: Inhibitory activity against partially purified rat liver HMG CoA reductase at 2 ug/ml concentration
[7] = target: T2, 3-hydroxy-3-methylglutaryl-coenzyme A reductase (Rattus norvegicus); test: Inhibitory activity against partially purified rat liver HMG CoA reductase at 4 ug/mL concentration
[8] = target: T2, 3-hydroxy-3-methylglutaryl-coenzyme A reductase (Rattus norvegicus); test: Inhibitory activity against partially purified rat liver HMG CoA reductase at 8 ug/ml concentration
[9] = target: T2, 3-hydroxy-3-methylglutaryl-coenzyme A reductase (Rattus norvegicus); test: Inhibitory activity against partially purified rat liver HMG CoA reductase at 1 ug/ml concentration
[10] = target: T2, 3-hydroxy-3-methylglutaryl-coenzyme A reductase (Rattus norvegicus); test: Inhibition of partially purified rat liver HMG CoA reductase at 10 ug/ml concentration
[11] = target: T2, 3-hydroxy-3-methylglutaryl-coenzyme A reductase (Rattus norvegicus); test: Inhibitory activity against partially purified rat liver HMG CoA reductase at 20 ug/ml concentration
[12] = target: T2, 3-hydroxy-3-methylglutaryl-coenzyme A reductase (Rattus norvegicus); test: Inhibitory activity against partially purified rat liver HMG CoA reductase at 5 ug/ml concentration
[13] = target: T2, 3-hydroxy-3-methylglutaryl-coenzyme A reductase (Rattus norvegicus); test: Inhibitory activity against partially purified rat liver HMG CoA reductase at 50 ug/ml concentration
[14] = target: T2, 3-hydroxy-3-methylglutaryl-coenzyme A reductase (Rattus norvegicus); test: Inhibitory activity against partially purified rat liver HMG CoA reductase at 1.0 ug/ml concentration
[15] = target: T2, 3-hydroxy-3-methylglutaryl-coenzyme A reductase (Rattus norvegicus); test: Inhibitory activity against partially purified rat liver HMG CoA reductase at 0.35 ug/ml concentration
[16] = target: T2, 3-hydroxy-3-methylglutaryl-coenzyme A reductase (Rattus norvegicus); test: Inhibitory activity against partially purified rat liver HMG CoA reductase at 0.75 ug/ml concentration
[17] = target: T2, 3-hydroxy-3-methylglutaryl-coenzyme A reductase (Rattus norvegicus); test: Inhibitory activity against partially purified rat liver HMG CoA reductase at 4 ug/ml concentration
[18] = target: T2, 3-hydroxy-3-methylglutaryl-coenzyme A reductase (Rattus norvegicus); test: Inhibitory activity against partially purified rat liver HMG CoA reductase at 3.125 ug/ml concentration
[19] = target: T2, 3-hydroxy-3-methylglutaryl-coenzyme A reductase (Rattus norvegicus); test: Inhibitory activity against partially purified rat liver HMG CoA reductase at 0.625 ug/ml concentration
[20] = target: T2, 3-hydroxy-3-methylglutaryl-coenzyme A reductase (Rattus norvegicus); test: Inhibitory activity against partially purified rat liver HMG CoA reductase at 12.5 ug/ml concentration
[21] = target: T2, 3-hydroxy-3-methylglutaryl-coenzyme A reductase (Rattus norvegicus); test: Inhibitory activity against partially purified rat liver HMG CoA reductase at 6 ug/ml concentration
[22] = target: T2, 3-hydroxy-3-methylglutaryl-coenzyme A reductase (Rattus norvegicus); test: Inhibitory activity against partially purified rat liver HMG CoA reductase at 1 ug/mL concentration
[23] = target: T2, 3-hydroxy-3-methylglutaryl-coenzyme A reductase (Rattus norvegicus); test: Inhibitory activity against partially purified rat liver HMG CoA reductase at 25 ug/ml concentration
[24] = target: T2, 3-hydroxy-3-methylglutaryl-coenzyme A reductase (Rattus norvegicus); test: Inhibitory activity against partially purified rat liver HMG CoA reductase at 0.8 ug/ml concentration
[25] = target: T2, 3-hydroxy-3-methylglutaryl-coenzyme A reductase (Rattus norvegicus); details: 1.4 ug/ml
Description: Inhibitory activity against partially purified rat liver HMG CoA reductase at 1.4 ug/ml concentration

SMILES: O=C1C[C@H](O)C[C@@H](C=C2c3ccccc3C=Cc3ccccc32)O1
IC50 [1]: 1.6 µM | Relative potency [2]: 0.9 | inhibition [3]: 20% | inhibition [4]: 34% | inhibition [5]: 42%

SMILES: NC(=O)C[C@H](O)C[C@H](O)/C=C/c1ccc(Cl)cc1Cl
inhibition [6]: 0% | inhibition [7]: 0% | inhibition [8]: 0% | inhibition [9]: 0%

SMILES: O=C1C[C@H](O)C[C@@H](/C=C/c2cccc3ccc4ccccc4c23)O1
inhibition [14]: 64% | IC50 [1]: 1.9 µM | Relative potency [2]: 1.1 | inhibition [15]: 39% | inhibition [16]: 58%

SMILES: O=C1C[C@H](O)C[C@@H](COc2ccc(Cl)cc2Cl)O1
inhibition [10]: 21% | inhibition [6]: 24% | inhibition [17]: 18% | inhibition [9]: 21%

SMILES: O=C1C[C@H](O)CC(CCC2CCCCC2)O1 (stereo partly specified)
inhibition [10]: 6% | inhibition [11]: 17% | inhibition [12]: 23% | inhibition [13]: 34%

SMILES: O=C1C[C@H](O)CC(CCc2cccc3ccccc23)O1 (stereo partly specified)
inhibition [10]: 29% | inhibition [11]: 45% | inhibition [12]: 19% | inhibition [13]: 61% | IC50 [1]: 129 µM

SMILES: O=C1C[C@H](O)C[C@@H](C#Cc2ccc(Cl)cc2Cl)O1
inhibition [18]: 8% | inhibition [19]: 0%

SMILES: O=C1C[C@H](O)CC(c2cccc3ccccc23)O1 (stereo partly specified)
inhibition [10]: 9% | inhibition [11]: 7% | inhibition [12]: 16% | inhibition [13]: 18%

SMILES: O=C1C[C@H](O)C[C@@H](CC[C@@H]2CCC[C@@H]3CCCC[C@@H]32)O1
inhibition [10]: 22% | inhibition [11]: 44% | inhibition [12]: 15% | inhibition [13]: 70% | IC50 [1]: 107 µM

SMILES: O=C1C[C@H](O)C[C@@H](C2CCCCC2)O1
inhibition [10]: 0% | inhibition [11]: 6% | inhibition [12]: 1% | inhibition [13]: 36%

SMILES: O=C1C[C@H](O)CC(CCC23CC4CC(CC(C4)C2)C3)O1 (stereo partly specified)
inhibition [20]: 28% | inhibition [12]: 16% | inhibition [9]: 18%

SMILES: COC(/C=C/c1ccc(Cl)cc1Cl)CC(O)CC(=O)O (stereo unspecified)
inhibition [10]: 0% | inhibition [6]: 0% | inhibition [12]: 0% | inhibition [22]: 0%

SMILES: O=C1C[C@H](O)CC(C=C(c2ccccc2)c2ccccc2)O1 (stereo partly specified)
inhibition [24]: 20% | inhibition [3]: 22% | inhibition [4]: 36% | inhibition [5]: 14%

SMILES: CC[C@H](C)C(=O)O[C@H]1CCC=C2C=C[C@H](C)[C@H](CC[C@@H]3C[C@@H](O)CC(=O)O3)[C@H]21 [MEVASTATIN]
IC50 [1]: 0.01 µM | Relative potency [2]: 100

SMILES: O=C1C[C@H](O)C[C@@H](/C=C/c2ccccc2)O1
inhibition [10]: 15% | inhibition [11]: 14% | inhibition [12]: 3% | inhibition [13]: 31%

SMILES: O=C1C[C@H](O)CC(CC[C@@H]2CC[C@H]3CCCC[C@@H]3C2)O1 (stereo partly specified)
inhibition [20]: 28% | inhibition [12]: 13% | IC50 [1]: 90 µM | inhibition [9]: 1%

SMILES: C[C@]1(O)CC(=O)O[C@H](CCc2ccc(Cl)cc2Cl)C1
inhibition [6]: 26% | inhibition [17]: 37% | IC50 [1]: 19.8 µM | Relative potency [2]: 0.08 | inhibition [8]: 63% | inhibition [9]: 14%

SMILES: O=C1C[C@H](O)CC(CCCc2cccc3ccccc23)O1 (stereo partly specified)
inhibition [10]: 25% | inhibition [6]: 11% | inhibition [23]: 35% | inhibition [12]: 7%

SMILES: O=C1C[C@H](O)C[C@@H](C=C2c3ccccc3-c3ccccc32)O1
inhibition [24]: 81% | IC50 [1]: 0.89 µM | Relative potency [2]: 1.5 | inhibition [3]: 25% | inhibition [4]: 48% | inhibition [25]: 61%

Results, then the compound that gave them:

IC50 [1]: 22 µM
SMILES: O=C1C[C@H](O)C[C@@H](/C=C/c2ccc(Cl)cc2Cl)O1 (racemic) [listing 1 of 2 here]

inhibition [10]: 64% | inhibition [11]: 84% | inhibition [12]: 41% | Relative potency [2]: 0.08 | inhibition [9]: 13%
SMILES: O=C1C[C@H](O)C[C@@H](/C=C/c2ccc(Cl)cc2Cl)O1 (racemic) [listing 2 of 2 here]

inhibition [10]: 26% | inhibition [11]: 27% | inhibition [12]: 4% | inhibition [13]: 23%
SMILES: O=C1C[C@H](O)CC(c2ccc(Cl)cc2Cl)O1 (stereo partly specified)

inhibition [10]: 27% | inhibition [6]: 4% | inhibition [11]: 17% | inhibition [12]: 6% | inhibition [13]: 18%
SMILES: O=C1C[C@@H](O)C[C@@H](/C=C/c2ccc(Cl)cc2Cl)O1 (racemic)

inhibition [10]: 72% | inhibition [6]: 45% | inhibition [11]: 86% | inhibition [12]: 66% | Relative potency [2]: 0.16 | inhibition [9]: 26%
SMILES: O=C1C[C@H](O)C[C@@H](/C=C/c2ccc(Cl)cc2Cl)O1 (stereo in doubt; 6a(+)) [listing 1 of 2 here]

inhibition [6]: 0% | inhibition [17]: 0% | inhibition [8]: 0% | inhibition [9]: 0%
SMILES: O=C1C[C@H](O)C[C@@H](/C=C/c2ccc(Cl)cc2Cl)O1 (stereo in doubt; 6a(-))

inhibition [10]: 61% | inhibition [6]: 21% | inhibition [17]: 36% | IC50 [1]: 20 µM | Relative potency [2]: 0.09 | inhibition [9]: 11%
SMILES: C[C@]1(O)CC(=O)O[C@H](/C=C/c2ccc(Cl)cc2Cl)C1

inhibition [18]: 0% | inhibition [19]: 0%
SMILES: O=C1C[C@@H](O)C[C@H](/C=C\c2ccc(Cl)cc2Cl)O1

inhibition [6]: 0% | inhibition [17]: 2% | inhibition [21]: 4%
SMILES: CO[C@H]1C[C@H](O)C[C@@H](/C=C/c2ccc(Cl)cc2Cl)O1

IC50 [1]: 10.8 µM
SMILES: O=C1C[C@H](O)C[C@@H](/C=C/c2ccc(Cl)cc2Cl)O1 (stereo in doubt; 6a(+)) [listing 2 of 2 here]

inhibition [10]: 12% | inhibition [6]: 0% | inhibition [13]: 15%
SMILES: O=C1C=C(O)OC(/C=C/c2ccc(Cl)cc2Cl)C1 (stereo unspecified)

inhibition [10]: 5% | inhibition [6]: 3% | inhibition [23]: 15% | inhibition [17]: 7%
SMILES: C[C@@]1(O)CC(=O)O[C@H](/C=C/c2ccc(Cl)cc2Cl)C1

inhibition [10]: 0% | inhibition [6]: 0% | inhibition [17]: 0% | inhibition [8]: 6%
SMILES: CO[C@@H]1C[C@H](O)C[C@@H](/C=C/c2ccc(Cl)cc2Cl)O1

inhibition [10]: 3% | inhibition [6]: 0% | inhibition [23]: 5% | inhibition [17]: 3%
SMILES: CC1=CC(=O)OC(/C=C/c2ccc(Cl)cc2Cl)C1 (stereo unspecified)

inhibition [10]: 80% | inhibition [6]: 38% | inhibition [12]: 57% | IC50 [1]: 15.2 µM | inhibition [9]: 29%
SMILES: O=C1C[C@H](O)C[C@@H](CCc2ccc(Cl)cc2Cl)O1
